# From ChEMBL document CHEMBL1137798, “Evaluation of natural products as inhibitors of human immunodeficiency virus type 1 (HIV-1) reverse transcriptase” (J Nat Prod, 1991)
# Structures can show the parent of a compound that is named as a salt.
# Target: Human immunodeficiency virus type 1 reverse transcriptase (Human immunodeficiency virus 1, UniProt Q72547)
# Details: read-out: IC50 (converted)
row,SMILES,IC50
1,CC1(C)O[C@H]2CC(=O)OC[C@]23[C@H]2CC[C@@]4(C)[C@H](c5ccoc5)OC(=O)[C@H]5O[C@]54[C@]2(C)C(=O)C[C@@H]13 [LIMONIN],> 425 µM
2,COc1cc([C@H]2OC[C@H]3[C@@H]2CO[C@@H]3c2cc(OC)c(O[C@@H]3O[C@H](CO)[C@@H](O)[C@H](O)[C@H]3O)c(OC)c2)cc(OC)c1O[C@@H]1O[C@H](CO)[C@@H](O)[C@H](O)[C@H]1O [LIRIODENDRIN],> 269 µM
3,C/C=C1/CN2[C@H]3C[C@@H]1[C@@H](CO)[C@@H]2Cc1c3[nH]c2ccc(OC)cc12 [LOCHNERINE],> 616 µM
4,COc1cc2cc(c1Cl)N(C)C(=O)C[C@H](OC(=O)[C@H](C)N(C)C(C)=O)[C@]1(C)O[C@H]1[C@H](C)[C@@H]1C[C@@](O)(NC(=O)O1)[C@H](OC)/C=C/C=C(\C)C2 [MAYTANSINE],> 289 µM
5,COc1c(O)c2c3c(nccc3c1OC)C(C)(C)c1cc(O)ccc1-2 [MELOSMINE],> 593 µM
6,C[C@H]1C(=O)O[C@@H]2CCN3CC=C(COC(=O)[C@](C)(O)[C@]1(C)O)[C@H]23 [MONOCROTALINE],> 615 µM
7,COc1ccc(C(=O)Cc2c(CCN(C)C)cc3c(c2OC)OCO3)c(C(=O)O)c1OC [NARCEINE],> 449 µM
8,COc1c([N+](=O)[O-])c2c(c3c1c(=O)c1ccccc1n3C)C=CC(C)(C)O2 [NITROACRONYCINE],> 546 µM
9,CC(=O)O[C@H]1CC(=O)OC(C)(C)[C@@H]2CC(=O)[C@]3(C)[C@H](CC[C@@]4(C)[C@@H](c5ccoc5)OC(=O)[C@H]5O[C@]543)[C@@]12C [NOMILIN],> 389 µM
10,COC(=O)C[C@](O)(CCCC(C)(C)O)C(=O)O[C@@H]1C(OC)=C[C@]23CCCN2CCc2cc4c(cc2[C@H]13)OCO4 [OMACETAXINE MEPESUCCINATE],> 367 µM
11,C1CN[C@@H]2[C@@H](C1)[C@@H]1CC2([C@H]2CCC[C@H](C3CC[C@@H]4N[C@H]3N3CCC[C@H]5C[C@@H]6C[C@]4(CN4CCCC[C@H]64)[C@@H]53)N2)CN2CCCC[C@H]12 (stereo not given in full) [ORMOSININE],> 324 µM
12,C[C@@H]1O[C@@H](O[C@H]2C[C@@H](O)[C@]3(CO)[C@H]4[C@H](O)C[C@]5(C)[C@@H](C6=CC(=O)OC6)CC[C@]5(O)[C@@H]4CC[C@]3(O)C2)[C@H](O)[C@H](O)[C@H]1O [OUABAIN],> 342 µM
13,CC(=O)O[C@H]1C(=O)[C@@]2(C)[C@H]([C@H](OC(=O)c3ccccc3)[C@]3(O)C[C@H](OC(=O)[C@H](O)[C@@H](NC(=O)c4ccccc4)c4ccccc4)C(C)=C1C3(C)C)[C@]1(OC(C)=O)CO[C@@H]1C[C@@H]2O [PACLITAXEL],> 234 µM
14,C1CCN2C[C@]34C[C@H](C[C@@H]5CCCN([C@@H]6CCC[C@@H]3N6)[C@H]54)[C@H]2C1 [PANAMINE DIPERCHLORATE],> 387 µM
15,C1CCN2C[C@]34C[C@H](C[C@@H]5CCCN([C@@H]6CCC[C@@H]3N6)[C@H]54)[C@H]2C1 [PANAMINE],> 634 µM
16,COc1ccc(Cc2nccc3cc(OC)c(OC)cc23)cc1OC [PAPAVERINE],< 589 µM
17,CC(=O)O[C@@H]1[C@H]2[C@H]3C[C@H]4C5=Nc6ccccc6[C@]51C[C@@H]2N4[C@H](C)C3C=O (stereo not given in full) [PERAKINE],> 571 µM
18,C=C1c2cc3[nH]ccc3cc2CN2CC[C@@H]1/C(=C\C)C2 [PERICALLINE],> 757 µM
19,C/C=C1/C=[N+]2[C@H]3C[C@H]1[C@H](C(=O)OC)[C@@H]2Cc1c3[nH]c2ccc(O)cc12 [PERICYCLIVINE],> 593 µM
20,C/C=C1/CN(C=O)[C@H]2Cc3c([nH]c4ccccc34)C(=O)C[C@@H]1[C@@H]2C(=O)OC [PERIFORMYLINE],> 546 µM
21,C/C=C1/CN[C@H]2Cc3c([nH]c4ccccc34)C(=O)C[C@@H]1[C@@H]2C(=O)OC [PERIVINE],> 591 µM
22,CNC[C@H](O)c1cccc(O)c1 [PHENYLEPHRINE],> 1200 µM
23,CC(=O)O[C@@H]1[C@@H](O)[C@H](O[C@H]2[C@H](OC(=O)[C@H]3CC[C@@H]4[C@H](C3)O[C@@]3(C[C@H](OC(=O)/C=C/c5ccccc5)[C@H](C)CO3)[C@]43CO3)O[C@H](C)[C@@H](O)[C@@H]2OC(C)=O)O[C@H](C)[C@H]1O [PHYLLANTHOSIDE],> 248 µM
24,C=C(C)[C@@H]1[C@H]2OC(=O)[C@@H]1[C@]1(O)C[C@H]3OC34C(=O)O[C@H]2[C@@]41C.CC(C)(O)[C@@H]1[C@H]2OC(=O)[C@@H]1[C@]1(O)C[C@H]3OC34C(=O)O[C@H]2[C@@]41C (stereo not given in full) [PICROTOXIN],> 332 µM
25,C/C=C1/C(=O)O[C@]23C=C[C@@H]4C(C(=O)OC)=CO[C@H](O[C@@H]12)[C@@H]43 [PLUMERICIN],> 689 µM
26,COC(=O)C1=CO[C@@H](O[C@@H]2O[C@H](CO)[C@@H](O)[C@H](O)[C@H]2O)[C@H]2[C@@H]1C=C[C@@]21C=C([C@H](C)O)C(=O)O1 [PLUMIERIDE],> 425 µM
27,CC(C)(O)CC[C@@H](O)[C@](C)(O)[C@H]1CC[C@@]2(O)C3=CC(=O)[C@]4(O)C[C@@H](O)[C@@H](O)C[C@]4(C)[C@H]3CC[C@]12C [POLYPODIN],> 403 µM
28,CC1(C)CC[C@]2(CO)[C@H](O)C[C@]3(C)C(=CC[C@@H]4[C@@]5(C)CC[C@H](O)C(C)(C)[C@@H]5CC[C@]43C)[C@@H]2C1 [PRIMULAGENIN],> 436 µM

row,SMILES,IC50
1,O=c1c(O)c(-c2ccc(O)c(O)c2)oc2cc(O)cc(O)c12 [QUERCETIN],< 662 µM
2,C=C[C@H]1C[N@@]2CC[C@H]1C[C@@H]2[C@@H](O)c1ccnc2ccc(OC)cc12 [QUINIDINE SULFATE],> 511 µM
3,COC(=O)C1=CO[C@H](C)[C@@H]2CN3CCc4c([nH]c5ccccc45)[C@@H]3C[C@H]12 [RAUNITICINE],> 567 µM
4,COC(=O)C1=CO[C@H](C)[C@@H]2CN3CCc4c([nH]c5cc(OC)ccc45)[C@@H]3C[C@H]12 [RAUNITIDINE],> 523 µM
5,C/C=C1/C[C@@H](C)[C@](O)(CO)C(=O)OCC2=CCN3CC[C@@H](OC1=O)[C@@H]23 [RETRORSINE],> 569 µM
6,C=C(C)[C@H]1Cc2c(ccc3c2O[C@@H]2COc4cc(OC)c(OC)cc4[C@]2(O)C3=O)O1 [ROTENOLONE],> 487 µM
7,C=C(C)[C@H]1Cc2c(ccc3c2O[C@@H]2COc4cc(OC)c(OC)cc4[C@@H]2C3=O)O1 [ROTENONE],> 507 µM
8,C[n+]1cc2c3c(ccc2c2ccc4cc5c(cc4c21)OCO5)OCO3 [SANGUINARINE NITRATE],< 380 µM
9,C/C=C1/CN2[C@H]3C[C@H]1[C@@H](CO)[C@@H]2Cc1c3[nH]c2ccc(O)cc12 [SARPAGINE],> 644 µM
10,O=C1C[C@]23C=CCN4CC[C@H]5c6cc7c(cc6N1[C@@]5(CC2)[C@@H]43)OCO7 [SCHIZOZYGINE],> 595 µM
11,CN1[C@@H]2C[C@@H](OC(=O)[C@H](CO)c3ccccc3)C[C@H]1[C@@H]1O[C@@H]12 [SCOPOLAMINE HYDROBROMIDE],> 456 µM
12,C/C=C1/C[C@@H](C)[C@@](C)(O)C(=O)OCC2=CCN3CC[C@@H](OC1=O)[C@@H]23 [SENECIONINE],> 596 µM
13,C=C1C/C(=C/C)C(=O)O[C@@H]2CCN3CC=C(COC(=O)[C@]1(C)O)[C@H]23 [SENECIPHYLLINE],> 600 µM
14,CC(=O)N[C@H]1[C@@H](O[C@H]2[C@H](O)[C@@H](O)[C@H](O[C@H]3[C@H](CS(=O)(=O)O)[C@@H](OS(=O)(=O)O)[C@@H](O[C@H]4[C@H](O)[C@@H](OS(=O)(=O)O)C(O)O[C@H]4C(=O)O)O[C@@H]3O)O[C@@H]2C(=O)O)O[C@H](COS(=O)(=O)O)[C@@H](O)[C@@H]1O (stereo not given in full) [SODIUM HEPARIN],> 192 µM
15,C1CCN2C[C@@H]3C[C@@H](CN4CCCC[C@@H]34)[C@H]2C1 [SPARTEINE SULFATE],> 473 µM
16,C1CCN2C[C@@H]3C[C@@H](CN4CCCC[C@@H]34)[C@H]2C1 [SPARTEINE],> 853 µM
17,C=C1C[C@@]23CC[C@H]4[C@@](C)(CCC[C@@]4(C)C(=O)O)[C@@H]2CC[C@]1(O)C3 [STEVIOL],> 628 µM
18,C=C1C[C@@]23CC[C@H]4[C@@](C)(CCC[C@@]4(C)C(=O)O[C@@H]4O[C@H](CO)[C@@H](O)[C@H](O)[C@H]4O)[C@@H]2CC[C@]1(O[C@@H]1O[C@H](CO)[C@@H](O)[C@H](O)[C@H]1O[C@@H]1O[C@H](CO)[C@@H](O)[C@H](O)[C@H]1O)C3 [STEVIOSIDE],> 248 µM
19,CC[C@H](/C=C/[C@@H](C)[C@H]1CC[C@H]2[C@@H]3CC=C4C[C@@H](O)CC[C@]4(C)[C@H]3CC[C@]12C)C(C)C [STIGMASTEROL],> 485 µM
20,O=C(OC[C@H]1O[C@@H](OC(=O)c2cc(O)c(O)c(OC(=O)c3cc(O)c(O)c(O)c3)c2)[C@H](OC(=O)c2cc(O)c(O)c(OC(=O)c3cc(O)c(O)c(O)c3)c2)[C@@H](OC(=O)c2cc(O)c(O)c(OC(=O)c3cc(O)c(O)c(O)c3)c2)[C@@H]1OC(=O)c1cc(O)c(O)c(OC(=O)c2cc(O)c(O)c(O)c2)c1)c1cc(O)c(O)c(OC(=O)c2cc(O)c(O)c(O)c2)c1 [TANNIC ACID],< 29.4 µM
21,COC(=O)C1=CO[C@@H](C)[C@@H]2CN3CCc4c([nH]c5ccccc45)[C@@H]3C[C@H]12 [TETRAHYDROALSTONINE],> 567 µM
22,COc1cc2c(cc1OC)[C@@H]1Cc3ccc(OC)c(OC)c3CN1CC2 [TETRAHYDROPALMATINE],> 563 µM
23,COc1cc(C[C@H]2c3cc(OC)c(OC)cc3CCN2C)c(Oc2cc3c(cc2OC)-c2c(OC)c(OC)cc4c2[C@H](C3)N(C)CC4)cc1OC [THALICARPINE],> 287 µM
24,C=C(C)C(O)C(O)c1cc2ccc(=O)oc2cc1OC (stereo not given) [THAMNOSMONIN],> 724 µM
25,COc1cc2c(c3c1c(=S)c1ccccc1n3C)C=CC(C)(C)O2 [THIOACRONYCINE],> 593 µM
26,O=C(/C=C/c1ccc(O)cc1)OC[C@H]1O[C@@H](Oc2c(-c3ccc(O)cc3)oc3cc(O)cc(O)c3c2=O)[C@H](O)[C@@H](O)[C@@H]1O [TILIROSIDE],< 336 µM
27,CC1=C(O)C(=O)C=C2C1=CC=C1[C@@]2(C)CC[C@@]2(C)[C@@H]3C[C@@H](C)C(=O)[C@@H](O)[C@]3(C)CC[C@]12C [TINGENIN B],> 458 µM
